Source: article PMC12774368, “Cyclic-di-GMP controls Type III effector export and symptom development in Pseudomonas syringae infections via the export ATPase HrcN” (PLOS Pathogens, 2025)

Biological target: T1, HrcN (Δ1-18 WT HrcN) (Pseudomonas syringae group genomosp. 3, UniProt Q887B5)
T1 construct: gene sctN; N-terminal residues 1-18 removed, His6-tagged (tag not reported cut), pETM11, expressed in E. coli BL21(DE3) pLysS, HisTrap purified
Type: binding
Conditions: 1 mM unlabelled competitor, 1.25 µM HrcN, 0.6 µM 2'-Fluo-AHC-c-diGMP; pH 7.5, 10 mM MgCl2

Nc1nc2c(ncn2[C@@H]2O[C@@H]3COP(=O)(O)O[C@H]4[C@@H](O)[C@H](n5cnc6c(=O)[nH]c(N)nc65)O[C@@H]4COP(=O)(O)O[C@H]3[C@H]2O)c(=O)[nH]1 [cyclic-di-GMP]
competition DRaCALA against fluorescent c-di-GMP: fluorescent cdG binding could be disrupted by the addition of unlabelled cdG
